Laboratory results from US9579318B2, “Histamine 4 receptor partial agonists, inverse agonists or antagonists for use in treating non-autoimmune uveitis” (UCL BUSINESS PLC, priority 2013, dated 2017).

Columns and labels:
[1] = test system: experimental autoimmune uveitis (EAU) in C57B1/6 mice; test: Experimental autoimmune uveitis (EAU) model, therapeutic treatment, histological scoring; assay type: in vivo; settings: EAU C57B1/6 mice, disease established, 5 doses, eyes harvested day 19 (FIG. 1)
Text: Whilst CD4+T cells are crucial for disease induction, it is now established in the literature (see Dick et al 2012) that tissue resident cells (microglia, macrophages) and infiltrating inflammatory cells (CD11b+granulocytes) contribute to the perpetuation of the inflammation in the C57BL/6 mouse, where evidence of retinal inflammation can be observed up to day 56 post immunization. In our study EAU was induced in C57B1/6 mice using subcutaneous administration of IRBP peptide emulsified in complete Freund's adjuvant (CFA) supplemented with […] mycobacterium, and intraperitoneal immunisation with Pertussis toxin. Clinical signs of EAU disease were monitored using non-invasive retinal fundus imaging (TEFI) until signs of retinal inflammatory disease were observed (usually by day 14). At this point mice were divided into treatment groups. A total of 45 mice were used, with groups as follows: CFA controls n=4; EAU controls n=6; JNJ 7777120 16 mg/kg n=5; 994 10 mg/kg n=5; 994 30 mg/kg n=5; 994 100 mg/kg n=5; 1006 10 mg/kg n=5; 1006 30 mg/kg n=5; 1006 100 mg/kg n=5. Each treatment group of mice received 5 intraperitoneal doses of compound, once per day, until day 19 when eyes were harvested. At this point eyes were processed and fixed, and histological sections were prepared. Histological scoring by light microscopy was done according to established methods (Gegg et al, 2005) where a score of 1.0 reflects inflammatory cells present in the vitreous cavity but not throughout the retinal layers, and the photoreceptor layer is as normal. A score of 2.0 reflects cells within the outer retinal layers, with some granuloma formation. A score of 3.0 reflects cells within the photoreceptor layer, some retinal folding, a focal loss of photoreceptor cells. […] This is an impressive effect since disease was already established. In most treatment studies mice are pretreated with drug prior to inducing EAU.

[2] = test system: endotoxin induced uveitis (EIU) in mice; test: Endotoxin induced uveitis (EIU) model, CD11b+ cells in retina by flow cytometry; assay type: in vivo; settings: pretreated with 0.1, 1.0 and 10.0 mM eyedrops twice daily for 3 days before LPS, eyes harvested 24 hours later (FIG. 2)
Description: EIU is a more acute form of anterior uveitis, induced by intraperitoneal immunization with LPS (endotoxin), and clinical signs of uveitis can be observed within 24-48 hours post immunisation. Due to the narrow time frame of disease, in our study mice (n=2 per group) were pretreated with three different concentrations of JNJ777120 compound (0.1, 1.0 and 10.0 mM) given twice daily as eyedrops for 3 days prior to inducing EIU, and eyes harvested 24 hours later. In this study, retinas were dissected from each eye and single cell suspensions prepared for staining with CD11b (to stain for granulocytes), and analysed by flow cytometry, Each eye was kept separate, so results are shown as means of 4 retinae in each group, in comparison with 6 eyes from 3 EIU non-treated control mice.

SMILES: CN1CCN(C(=O)c2cc3cc(Cl)ccc3[nH]2)CC1 [JNJ7777120, 1-[(5-chloro-1H-indol-2-yl)carbonyl]-4-methylpiperazine]
- histological scores (retinal inflammation, light microscopy) ([1]; 16 mg/kg i.p. once per day): reduced the histological scores to control levels
- levels of infiltrating granulocytes (numbers of CD11b+ cells in retina) [2]: significantly decreased the levels of infiltrating granulocytes

SMILES: Cc1ccc(CNc2cc(N3CCN(C)CC3)nc(N)n2)cc1.O=C(O)/C=C\C(=O)O [compound 994]
- histological scores (retinal inflammation, light microscopy) ([1]; 100 mg/kg i.p. once per day): reduced the histological scores to control levels

SMILES: CN1CCN(c2cc(NCc3c(Cl)cccc3Cl)nc(N)n2)CC1.O=C(O)/C=C\C(=O)O [compound 1006]
- histological scores (retinal inflammation, light microscopy) ([1]; 30 mg/kg i.p. once per day): reduced the histological scores to control levels
